Results on one compound are retold here after paper PMC12738789, “Synthesis of an enhanced nanobiocatalyst system from Aspergillus niger as single green source” (Scientific Reports, 2025).

This experiment has as its system T1, Aspergillus niger ATCC 16,878 lipase.
T1 construct: gene lipA
In words: spectrophotometric p-nitrophenol release at […] nm, nonlinear Michaelis-Menten fit. The format is biochemical. The note with it: free enzyme; 0.1-1 mM pNPP; standard assay 0.1 M potassium phosphate pH 7.5, 37 °C, 2% Triton X-100.

As a reminder, the Km is the concentration of substrate that gives half-maximal velocity. As for `CCCCCCCCCCCCCCCC(=O)Oc1ccc([N+](=O)[O-])cc1` [4-nitrophenyl palmitate], the Km was determined as 147 µM.
